# Patent publication US9908845B2, “Aryl ethers and uses thereof” (Peloton Therapeutics, Inc., priority 2013, dated 2018)
# Tests used:
# [1] = target: HIF-2α HIS TAG-PASB Domain; assay: HIF-2α Scintillation Proximity Assay (SPA), probe displacement; format: binding
# Method: The percent inhibition was determined and IC50 values were calculated using the Dotmatics system based on the following equation: % inhibition=[(high control−sample)/(high control−low control)]×100.
# human VEGFA [2] = assay: In vivo PK/PD study: plasma level of human VEGFA by ELISA; set-up: species or system SCID/Biege mice; settings: 10, 30 or 100 mg/kg oral gavage, three times at 12 hour intervals
# Method: (§1) About 5×10^6 renal cell carcinoma 786-O tumor cells (ATCC® CRL-1932™, VHL and HIF-1α null cell line) in PBS and Matrigel (1:1 in volume) were injected subcutaneously at the right flanks of SCID/Biege mice at 6-7 weeks of age for xenograft development. When the xenografts reached about 450 mm^3 in size, the tumor bearing mice were randomly divided into 4 groups (n=4). Plasma was collected prior to treatment by retro-orbital bleeding. […] All animals were sacrificed at 12 hours post last dose. Tumor, kidney, and plasma were collected from each animal. Total RNA was extracted from the tumors and kidneys. The mRNA levels of HIF-1α, HIF-2α and their respective target genes were determined by qRT-PCR (FIG. 1).
# [3] = system: 786-O renal cell carcinoma cells; assay: In vivo efficacy study, renal cell carcinoma 786-O xenograft model; set-up: species or system SCID/Biege mice
# [4] = system: HIF-2α and HIF-2α-regulated genes (PAI-1, CCND1, VEGFA, and GLUT1); assay: mRNA levels in tumor of 786-O xenograft bearing mice; format: in vivo; settings: renal cell carcinoma 786-O xenograft bearing mice; 10, 30 and 100 mg/kg three times at 12 hour intervals
# human VEGFA [5] = assay: plasma human VEGF level of 786-O xenograft bearing mice; format: in vivo; settings: 10, 30 and 100 mg/kg three times at 12 hour intervals, prior to treatment vs 12 h post treatment
# [6] = system: EPO and PGK1 mRNA in mouse kidney; assay: In vivo PK/PD study: mouse kidney mRNA levels by qRT-PCR; set-up: species or system SCID/Biege mice; settings: oral gavage, three times at 12 hour intervals
# Method: as §1
# 786-O xenograft = assay: tumor size in 786-O xenograft bearing mice, single agent; format: in vivo; settings: 3, 10, 30 and 100 mg/kg BID for 20 days
compound,measurement,setting,value
"O=S(=O)(c1ccc(Oc2ccc(F)c(Cl)c2)c2c1[C@H](O)C(F)(F)C2)C(F)F [Compound 26, (S)-4-(3-Chloro-4-fluorophenoxy)-7-((difluoromethyl)sulfonyl)-2,2-difluoro-2,3-dihydro-1H-inden-1-ol]",IC50,[1],< 5 nM
"N#Cc1cc(F)cc(Oc2ccc(S(=O)(=O)C(F)F)c3c2CC(F)(F)[C@H]3O)c1 [Compound 15, 3-[(1S)-7-(difluoromethylsulfonyl)-2,2-difluoro-1-hydroxy-indan-4-yl]oxy-5-fluoro-benzonitrile]",Human VEGFA in the plasma of 786-O tumor-bearing mice,human VEGFA [2],significant reduction
same,Reduction of tumor size vs vehicle (t-Test),"[3]; all treatment groups, 786-O xenograft model",statistically significant reduction
same,"mRNA levels of HIF-2α and HIF-2α-regulated genes (PAI-1, CCND1, VEGFA, and GLUT1) in tumor",[4],reduced
same,plasma level of human VEGFA,human VEGFA [5],reduced
same,Level of EPO mRNA in mouse kidney,[6],reduced
same,mRNA level of PGK1 in mouse kidney,[6],remained unchanged
same,tumor size,786-O xenograft,tumor size reduction and regression
"CCN(CC)CCNC(=O)c1c(C)[nH]c(/C=C2\C(=O)Nc3ccc(F)cc32)c1C [Sutent, sutent, reference compound]",Tumor size Mean ± SEM,"[3]; 40 mg/kg QD, after 20 days of dosing",211.59 mm^3
